In ChEMBL document CHEMBL1159278, “An antimitotic and cytotoxic chalcone from Fissistigma lanuginosum” (J Nat Prod, 1995):
Values after ≈ are worked out from the molar mass of the structure shown.

Columns and labels:
[1] = tested on: KB; experiment: Cytotoxicity against human KB cells; format: functional, cell-based
[2] = Inhibition of tubulin assembly into microtubules

| IC50 [2] [µM] | SMILES | IC50 [1] [µg/mL] |
| --- | --- | --- |
|  | COc1c(O)c(OC)c(C(=O)[C@@H]2CC=C(CCC=C(C)C)C[C@H]2c2ccccc2)c(O)c1OC [FISSISTIN] | 0.15 (≈ 0.321 µM) |
|  | COc1c(O)c(OC)c(C(=O)[C@@H]2CC(CCC=C(C)C)=CC[C@H]2c2ccccc2)c(O)c1OC [ISOFISSISTIN] | 0.15 (≈ 0.321 µM) |
| 300 | COc1c(O)c(OC)c(C(=O)/C=C/c2ccccc2)c(O)c1OC [PEDICIN] |  |
| 4 | CC[C@]1(O)C[C@@H]2CN(CCc3c([nH]c4ccccc34)[C@@](C(=O)OC)(c3cc4c(cc3OC)N(C)[C@H]3[C@@](O)(C(=O)OC)[C@H](OC(C)=O)[C@]5(CC)C=CCN6CC[C@]43[C@@H]65)C2)C1 [VINBLASTINE] |  |
